Experiments:
[1] = tested on: CAL-51; details: 72 h
Method in brief: (§1)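 Viability of breast cancer cell lines was measured with CellTiter-Blue after 72 h of incubation on compound-loaded 384-well plates. Cells were seeded in 20 µl onto compound dissolved in 5 µl medium, and 2.5 µl reagent was added for 2 h at 37 °C before reading at 560/590 nm. EC50 was fitted from percent-inhibition dose-response data censored at the highest concentration, normalised per plate to vehicle and a positive kill control, with zero drug sensitivity score rows dropped.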

[2] = tested on: CAL-148; details: 72 h
Method in brief: as §1

[3] = tested on: BT-474; test: normalised viability (% of control), CellTiter-Blue; higher = more viable cells (about 100 = DMSO control); details: incubation time: 72 h
Method in brief: (§2)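 Each entry is normalised viability at a single listed concentration within a series. It comes from breast cancer cell lines incubated 72 h with compound in 384-well plates, then measured with CellTiter-Blue fluorescence at 560/590 nm. Every plate was normalised between vehicle (100) and a positive kill control (0).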

[4] = tested on: HCC1143; test: as above; details: incubation time: 72 h
Method in brief: as §2

[5] = tested on: MDA-MB-231; test: as above; details: incubation time: 72 h
Method in brief: as §2

[6] = tested on: HCC1937; test: as above; details: incubation time: 72 h
Method in brief: as §2

[7] = tested on: HDQ-P1; test: as above; details: incubation time: 72 h
Method in brief: as §2

[8] = tested on: Hs578T; test: as above; details: incubation time: 72 h
Method in brief: as §2

[9] = tested on: CAL-85-1; test: as above; details: incubation time: 72 h
Method in brief: as §2

[10] = tested on: CAL-51; test: as above; details: incubation time: 72 h
Method in brief: as §2

[11] = tested on: MDA-MB-453; test: as above; details: incubation time: 72 h
Method in brief: as §2

[12] = tested on: MFM-223; test: as above; details: incubation time: 72 h
Method in brief: as §2

[13] = tested on: MDA-MB-436; test: as above; details: incubation time: 72 h
Method in brief: as §2

[14] = tested on: MDA-MB-468; test: as above; details: incubation time: 72 h
Method in brief: as §2

[15] = tested on: DU-4475; test: as above; details: incubation time: 72 h
Method in brief: as §2

[16] = tested on: BT-549; test: as above; details: incubation time: 72 h
Method in brief: as §2

[17] = tested on: CAL-148; test: as above; details: incubation time: 72 h
Method in brief: as §2

COc1cccc2cc(-c3nc([C@H]4CC[C@H](C(=O)O)CC4)n4ncnc(N)c34)[nH]c12 [OSI-027]
Details | EC50, CellTiter-Blue viability [nM]
[1] | 1580
[2] | 1640

normalised viability [%]
Details | 3 nM | 10 nM | 30 nM | 100 nM | 1000 nM | 10000 nM
[3] | – | 106 | – | – | 54.2 | 25.9
[4] | – | 101 | – | – | 72.9 | 35
[5] | – | 87.4 | – | – | 69.4 | 25.9
[6] | – | 71.7 | – | – | 59.8 | 33.9
[7] | 78.3 | – | 80.4 | 76.8 | – | –
[8] | – | 99.4 | – | – | 59.1 | 23.6
[9] | 95.4 | – | 83.2 | 100 | – | –
[10] | 97.3 | – | 93.8 | 84.6 | – | –
[11] | 79 | – | 88.2 | 71.6 | – | –
[12] | – | 101 | – | – | 34.9 | 16
[13] | – | 76.6 | – | – | 56.4 | 31.6
[14] | – | 87.8 | – | – | 66.4 | 22
[15] | 96.6 | – | 92.5 | 82.5 | – | –
[16] | – | 98.9 | – | – | 76 | 16.1
[17] | 86.7 | – | 87.5 | 82.2 | – | –

C=CCNC1=C2C[C@@H](C)C[C@H](OC)[C@H](O)[C@@H](C)/C=C(\C)[C@H](OC(N)=O)[C@@H](OC)/C=C\C=C(/C)C(=O)NC(=CC1=O)C2=O [Tanespimycin]
Details | EC50, CellTiter-Blue viability [nM]
[1] | 269
[2] | 65.9

normalised viability [%]
Details | 3 nM | 10 nM | 30 nM | 100 nM | 1000 nM | 10000 nM
[3] | – | 104 | – | – | 28.4 | 23.9
[4] | – | 64.6 | – | – | 30.2 | 29.3
[5] | – | 92.5 | – | – | 49.4 | 28.1
[6] | – | 140 | – | – | 25.8 | 27.1
[7] | 92.6 | – | 85.9 | 58.6 | – | –
[8] | – | 77.1 | – | – | 35.8 | 24.9
[9] | 91.5 | – | 86.5 | 82.4 | – | –
[10] | 118 | – | 108 | 81.9 | – | –
[11] | 121 | – | 11.4 | 7.8 | – | –
[12] | – | 73.6 | – | – | 23.9 | 17.6
[13] | – | 88.8 | – | – | 24.9 | 17.5
[14] | – | 113 | – | – | 65.5 | 81.3
[15] | 104 | – | 83.3 | 2.97 | – | –
[16] | – | 81.5 | – | – | 31 | 20.4
[17] | 97.8 | – | 89.7 | 38.5 | – | –

CO[C@H]1C[C@@H]2CC[C@@H](C)[C@@](O)(O2)C(=O)C(=O)N2CCCC[C@H]2C(=O)O[C@H]([C@H](C)C[C@@H]2CC[C@@H](OC(=O)C(C)(CO)CO)[C@H](OC)C2)CC(=O)[C@H](C)/C=C(\C)[C@@H](O)[C@@H](OC)C(=O)[C@H](C)C[C@H](C)/C=C/C=C/C=C/1C [Temsirolimus]
Details | EC50, CellTiter-Blue viability [nM]
[1] | 1.36
[2] | 0.47

normalised viability [%]
Details | 0.3 nM | 1 nM | 3 nM | 10 nM | 100 nM | 1000 nM
[3] | – | 80 | – | – | 58.6 | 66.2
[4] | – | 75.7 | – | – | 66.5 | 61
[5] | – | 73.4 | – | – | 75.1 | 78.4
[6] | – | 59.5 | – | – | 68.7 | 54.7
[7] | 106 | – | 78.4 | 82.5 | – | –
[8] | – | 70.4 | – | – | 55.1 | 57.6
[9] | 69.3 | – | 58.9 | 60.7 | – | –
[10] | 89.4 | – | 55.5 | 37.5 | – | –
[11] | 73.5 | – | 26.1 | 27.1 | – | –
[12] | – | 58.1 | – | – | 50.5 | 41
[13] | – | 81.8 | – | – | 80.6 | 69.5
[14] | – | 74.6 | – | – | 68.5 | 62.4
[15] | 95.3 | – | 66.6 | 60.2 | – | –
[16] | – | 56.8 | – | – | 62.9 | 53.4
[17] | 74.3 | – | 45.9 | 39.4 | – | –

CC[C@]1(O)C[C@@H]2CN(CCc3c([nH]c4ccccc34)[C@@](C(=O)OC)(c3cc4c(cc3OC)N(C)[C@H]3[C@@](O)(C(=O)OC)[C@H](OC(C)=O)[C@]5(CC)C=CCN6CC[C@]43[C@@H]65)C2)C1 [Vinblastine]
Details | EC50, CellTiter-Blue viability [nM]
[1] | 26.5
[2] | 13.2

normalised viability [%]
Details | 0.3 nM | 1 nM | 3 nM | 10 nM | 100 nM | 1000 nM
[3] | – | 51.8 | – | – | 54.2 | 52.7
[4] | – | 77.3 | – | – | 42.7 | 29.5
[5] | – | 70 | – | – | 13.4 | 12
[6] | – | 46 | – | – | 18.7 | 15.6
[7] | 92.6 | – | 87.3 | 47.5 | – | –
[8] | – | 70.4 | – | – | 14.8 | 13.2
[9] | 89.9 | – | 94.9 | 48.3 | – | –
[10] | 108 | – | 106 | 96.4 | – | –
[11] | 115 | – | 99.8 | 36.8 | – | –
[12] | – | 96.7 | – | – | 43.9 | 24.9
[13] | – | 93 | – | – | 28.8 | 37
[14] | – | 83.8 | – | – | 36.6 | 41.8
[15] | 105 | – | 96.5 | 82.9 | – | –
[16] | – | 90.7 | – | – | 19.4 | 17
[17] | 76.8 | – | 78.8 | 79 | – | –

From the supplement of paper PMC4862054
